system: mt-Keima HEK 293T cells; test: In vitro activation of mitophagy in mt-Keima 293T cells; assay type: cell-based, human; conditions: 10 μM, 6 hours
Method: The specific method was as follows:
293T cells were cultured and passaged in the normal way, and inoculated in a 24-well plate, with 0.5 mL inoculated in each well. The cell density was 5×10^4 cells/mL, and a total of 2.5×10^4 cells were inoculated. Before inoculation, the cells in the centrifuge tube were pipetted evenly to ensure that the cell density at the beginning and at the end was consistent. After standing for 5-10 minutes, the plate was gently placed in the incubator. After overnight incubation, the original complete medium was removed, and 0.3 mL of a complete medium solution containing 1.5×10^5 TU lentiviruses was added to each well. After incubation at 37° C. for 8 hours, 200 μL of the complete medium was added to each well. After 24 hours of transfection, the medium was replaced until the cell density reached 80-90%, and the cells were digested and passaged a T25 flask. […] The successfully transfected cells were screened using a complete medium containing 0.5 μg/mL of a puromycin hydrochloride solution, and maintained with 0.25 μg/mL of the solution.
The confocal dishes were inoculated with 1 mL per dish, with a cell density of 2×10^5 cells/mL. After standing for 5-10 minutes, the dishes were gently placed in the incubator. When the cells grew to 30-40%, the drug was administered. After treating mt-Keima cells with 10 μM different iridoid monomer ingredients from the male flowers of Eucommia ulmoides Oliver or 10 μM CCCP for 6 hours, the medium was replaced with a fresh complete medium, and then live-cell confocal observation was performed directly. Confocal parameters: the excitation wavelengths were 440 nm and 596 nm each, and the emission wavelength was 620 nm, observed by a 40× water immersion objective.

Compound | mitophagy activation
OCC1=C[C@@H](O)[C@@H]2C=CO[C@@H](O[C@@H]3O[C@H](CO)[C@@H](O)[C@H](O)[C@H]3O)[C@H]12 [aucubin] | have mitophagy-activating activity
carbonyl cyanide ester-3-chlorophenylhydrazone [CCCP] | significantly induced the occurrence of mitophagy
CC(=O)OCC1=C[C@@H]2OC(=O)C3=CO[C@@H](O[C@@H]4O[C@H](CO)[C@@H](O)[C@H](O)[C@H]4O)[C@H]1[C@@H]32 [asperuloside] | had mitophagy-activating activity
O=C(O)C1=CO[C@@H](O[C@@H]2O[C@H](CO)[C@@H](O)[C@H](O)[C@H]2O)[C@@H]2C(CO)=CC[C@H]12 [geniposidic acid] | have mitophagy-activating activity
COC(=O)C1=CO[C@@H](O[C@@H]2O[C@H](CO)[C@@H](O)[C@H](O)[C@H]2O)[C@@H]2C(CO)=CC[C@H]12 [geniposide] | have mitophagy-activating activity

same assay, conditions: 10 μM, 6 hours, same concentration

Compound | comparison of the average fluorescence density ratio
CC(=O)OCC1=C[C@@H]2OC(=O)C3=CO[C@@H](O[C@@H]4O[C@H](CO)[C@@H](O)[C@H](O)[C@H]4O)[C@H]1[C@@H]32 [asperuloside] | better than that of the other three monomer ingredients

Source: patent US20260021152A1, “USE OF MALE FLOWER EXTRACT OF EUCOMMIA ULMOIDES OLIVER IN PREPARATION OF FOOD OR MEDICAMENT FOR RESISTING MUSCLE AGING” (ZHEJIANG UNIVERSITY, priority 2022, published 2026)
